According to patent US20090264401A1, “SUBSTITUTED PYRIMIDIN-5-CARBOXAMIDES 281” (AstraZeneca AB, priority 2008, published 2009):

Molecular target: T1, human 11βHSD1 enzyme (Homo sapiens, UniProt P28845)
T1 construct: baculovirus expressed N terminal 6-His tagged full length human 11βHSD1 enzyme; 6-His (N); made in house
Assay: 11βHSD1 cortisone to cortisol conversion, competitive HTRF assay
Assay type: biochemical
Settings: human 11-βHSD; test concentration of 30 μM of compound
Procedure, shortened: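 Enzyme was baculovirus-expressed, N-terminal 6-His-tagged full-length human 11βHSD1, purified on a copper chelate column. Compounds were added in buffer containing 1% DMSO at 10-fold final concentration.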

T1 sequence (P28845 whole entry): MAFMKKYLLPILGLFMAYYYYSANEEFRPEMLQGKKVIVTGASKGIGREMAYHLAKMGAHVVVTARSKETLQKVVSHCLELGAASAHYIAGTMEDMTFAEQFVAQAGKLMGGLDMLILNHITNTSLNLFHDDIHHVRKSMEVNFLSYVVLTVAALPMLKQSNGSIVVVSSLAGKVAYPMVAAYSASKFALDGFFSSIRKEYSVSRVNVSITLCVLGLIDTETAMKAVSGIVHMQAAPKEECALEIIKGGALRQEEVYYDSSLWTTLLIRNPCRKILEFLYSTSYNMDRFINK

Row | Compound | inhibition at 30 µM
1 | CCOc1nc(OC2CCC2)ncc1C(=O)N[C@H]1C2CC3CC1C[C@@](O)(C3)C2 [Example 213, 2-(cyclobutyloxy)-4-ethoxy-N-[(2r,5s)-5-hydroxytricyclo[3.3.1.13,7]dec-2-yl]pyrimidine-5-carboxamide] | 107%
2 | CC(C)Oc1nc(N2C[C@@H](C)O[C@@H](C)C2)ncc1C(=O)N[C@H]1C2CC3CC1C[C@@](O)(C3)C2 [Example 214, 2-[(2R,6S)-2,6-dimethylmorpholin-4-yl]-N-[(2r,5s)-5-hydroxytricyclo[3.3.1.13,7]dec-2-yl]-4-(1-methylethoxy)pyrimidine-5-carboxamide] | 103%
3 | CC(C)Oc1nc(NC2CC2)ncc1C(=O)N[C@H]1C2CC3CC1C[C@@](O)(C3)C2 [Example 215, 2-(cyclopropylamino)-N-[(2r,5s)-5-hydroxytricyclo[3.3.1.13,7]dec-2-yl]-4-(1-methylethoxy)pyrimidine-5-carboxamide] | 94.9%
4 | CC(C)Oc1nc(NC2CCC2)ncc1C(=O)N[C@H]1C2CC3CC1C[C@@](O)(C3)C2 [Example 217, 2-(cyclobutylamino)-N-[(2r,5s)-5-hydroxytricyclo[3.3.1.13,7]dec-2-yl]-4-(1-methylethoxy)pyrimidine-5-carboxamide] | 94.2%

Continued, values first:

Row | inhibition at 30 µM | Compound
5 | 96% | CC(C)Oc1nc(OC2CCC2)ncc1C(=O)N[C@H]1C2CC3CC1C[C@@](O)(C3)C2 [Example 218, 2-(cyclobutyloxy)-N-[(2r,5s)-5-hydroxytricyclo[3.3.1.13,7]dec-2-yl]-4-(1-methylethoxy)pyrimidine-5-carboxamide]
6 | 98.6% | COCc1nc(N2C[C@@H](C)O[C@@H](C)C2)ncc1C(=O)N[C@H]1C2CC3CC1C[C@@](O)(C3)C2 [Example 219, 2-[(2S,6R)-2,6-Dimethylmorpholin-4-yl]-N-[(2r,5s)-5-hydroxyadamantan-2-yl]-4-(methoxymethyl)pyrimidine-5-carboxamide]
7 | 97% | O=C(N[C@H]1C2CC3CC1C[C@@](O)(C3)C2)c1cnc(N2CCOCC2)nc1N1CCOCC1 [compound 32]

Same assay, conditions: recombinant N terminal 6-His tagged full length human 11βHSD1; cortisone 160 nM; 25 minutes at 37° C.

Row | IC50 | Compound
8 | 0.22 µM | O=C(N[C@H]1C2CC3CC1C[C@@](O)(C3)C2)c1cnc(N2CCOCC2)nc1N1CCOCC1 [compound 32]
